Data on two molecules can be found in patent publication US20230025932A1, “NOVEL FUNCTIONALIZED LACTONES AS MODULATORS OF THE 5-HYDROXYTRYPTAMINE RECEPTOR 7 AND THEIR METHOD OF USE” (Temple University-Of The Commonwealth System of Higher …, priority 2019, published 2023).

Molecules are shown by their SMILES. pKi: −log10 of the molar value.

For assay [1], the target named is T1, 5-HT7 receptors (Homo sapiens, UniProt P34969). The assay can be described thus: Functional cAMP enzyme fragment complementation assay (HitHunter cAMP), antagonist Kb. It counts as cell-based. More on the design: expressed in transfected cells. The following applies: cells expressing human 5HT7, antagonist mode with EC70 5-HT. How it is done: Functional efficacy of the compounds of the disclosure on 5-HT7 serotonin receptors are measured in a cell based cAMP enzyme fragment complementation assay using the HitHunter cAMP assay (DiscoveRx). Cells stably expressing human 5HT7 receptors are plated in 96-well plates at 4000 cells/well, 16-20 hours prior to assay in growth media (Ultraculture medium, 2 mM GlutaMax and G418 1 mg/mL. Serial dilutions of the agonist, 5-hydroxytryptamine (5-HT), are prepared in a final concentration range of 10 μM to 10 nM. Compounds of the disclosure are prepared in 3-fold serial dilutions to obtain a final concentration range of 10 μM to 0.1 nM. Compounds of the disclosure are tested for agonist activity in the absence of 5-HT and antagonist activity in the presence of 5-HT. For the cAMP assay, the protocol is followed according to the instructions provided by the supplier. Briefly, cells are incubated with a compound of the disclosure for 30 minutes at 37° C. prior to addition of EC70 concentration of 5-HT. After an additional 30 minutes, cAMP antibody/cell lysis solution is added (20 μL/well) and incubated for 60 minutes at room temperature. cAMP XS+EA reagent is added (20 μL/well) and incubated for 2 hours at room temperature. Luminescence is read on the Envision Multilabel plate reader.
T1 sequence (P34969 whole entry, the tested form may be a part): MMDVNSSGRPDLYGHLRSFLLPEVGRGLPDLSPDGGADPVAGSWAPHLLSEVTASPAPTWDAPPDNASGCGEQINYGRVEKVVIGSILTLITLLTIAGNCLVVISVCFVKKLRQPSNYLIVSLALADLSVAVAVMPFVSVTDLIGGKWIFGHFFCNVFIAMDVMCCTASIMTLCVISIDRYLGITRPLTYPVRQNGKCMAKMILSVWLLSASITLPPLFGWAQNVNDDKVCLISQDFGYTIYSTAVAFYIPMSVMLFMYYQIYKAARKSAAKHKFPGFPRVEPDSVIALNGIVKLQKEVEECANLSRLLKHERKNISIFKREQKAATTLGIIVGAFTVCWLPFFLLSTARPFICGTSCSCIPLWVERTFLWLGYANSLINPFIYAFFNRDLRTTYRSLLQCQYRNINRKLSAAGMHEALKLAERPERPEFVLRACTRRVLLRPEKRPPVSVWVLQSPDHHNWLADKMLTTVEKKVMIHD

Assay [2] has as its target T1, 5-HT7 receptors. Description: Radiolabeled binding ([3H]LSD competition, membrane fractions).

As usually defined, the Kb is the affinity of an antagonist, worked out from how it opposes an agonist. The molecule `CC(=O)NCC(=O)N1CCC2(CC1)C[C@H](CCN1CCN(c3ccc(F)cc3)CC1)OC2=O` [Compound 6] gave a Kb on 5-HT7 receptors [1] of 10 to 100 nM.

Usually pKi stands for the negative decadic logarithm of the Ki, by convention in mol/L. Higher therefore signals a low Ki. Molecule `CS(=O)(=O)NCC(=O)N1CCC2(CC1)C[C@H](CCN1CCN(c3cccc(Cl)c3)CC1)OC2=O` [Compound 9] displayed a Kb on 5-HT7 receptors [1] of 10 to 100 nM. Further, the pKi on 5-HT7 receptors [2] was 6.70 to 7.30.
